Read-outs that look alike come from different tables or passages of the source.
Columns and labels:
[1] = biological target: T1, HLE (human leucocyte elastase) (Homo sapiens, UniProt P08246); test: Measurement of HLE inhibition potency (kinact/Ki); format: biochemical; parameters: Potency (M/sec), kinact/Ki: unit not given here
T1 sequence (P08246 30-267): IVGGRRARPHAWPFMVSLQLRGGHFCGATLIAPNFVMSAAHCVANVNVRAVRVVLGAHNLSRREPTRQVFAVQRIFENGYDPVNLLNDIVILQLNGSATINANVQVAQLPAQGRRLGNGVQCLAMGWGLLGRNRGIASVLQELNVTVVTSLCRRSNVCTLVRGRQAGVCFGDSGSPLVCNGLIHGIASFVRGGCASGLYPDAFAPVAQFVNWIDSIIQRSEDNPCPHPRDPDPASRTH
Description: Inhibitor potency against HLE is described by the parameter kinact/Ki as previously reported [Knight et al., Biochem., 8160-8170, (1992)]. Lyophilised enzyme was reconstituted with TrisHCl buffer, 100 mM, 0.5M NaCl at 0.05 units/ml (approximately nanomolar concentration) in a final reaction volume of 1 ml to which was added methoxysucc-ala-ala-pro-val-pNA substrate (1 mM) and the elastase inhibitor dissolved in DMSO. The reaction was monitored by detecting the change of absorbance at 410 nm (hydrolysis of the substrate releasing p-nitroaniline) over a timescale of 25 minutes. Values of kinact/Ki were estimated according to the Knight et al method.

[2] = test system: isolated human white cells (granulocytes; monocytes + lymphocytes); test: In vitro cell uptake in isolated human white cells; format: cell-based; conditions: for selectivity for granulocytes over a mixture of monocytes/lymphocytes: approximately equivalent numbers of monocytes/lymphocytes and granulocytes present; for % uptake in Gran. (granulocytes), WHITE CELLS / % uptake in Mon. (monocytes + lymphocytes), WHITE CELLS: isolated human white cells, 30 minutes at 37° C., radiolabelled compound
Description: Fresh blood (30-120 ml) was anticoagulated with 1.5% ACD solution and sedimented by addition of 2 ml Hespan per 10 ml blood for 90 minutes at room temperature. The leucocyte rich platelet rich plasma supernatant was removed and centrifuged at 150 g for 5 minutes, yielding a leucocyte rich pellet and platelet rich plasma (PRP). The PRP was centrifuged at 4000 g to pellet the platelets leaving a cell free plasma (CFP). The leucocyte pellet was resuspended in a 50:50 mixture of HBSS and CFP and incubated with the radioactive compound for 30 minutes at 37° C. Free radioactive material was then removed from the cells by addition of an excess of HBSS:CFP and centrifugation of the leucocytes at 150 g for 7 minutes. The supernatant and cell pellet were taken for radioactive counting for calculation of percentage cell uptake. The distribution of radioactivity within the cell pellet was assessed by separation of the cell types using Percoll density gradient centrifugation (38%, 55% and 73% Percoll in HBSS step gradients). The residual plasma and free activity was recovered from the top of the gradient, the mononuclear cells (lymphocytes and monocytes) from the interface between 38% and 55%, and the granulocytes were recovered from the interface between 55% and 73% Percoll.

[3] = test system: mixed human red/white cells (granulocytes, monocytes + lymphocytes, erythrocytes); test: In vitro cell uptake in mixed human red/white cells; format: cell-based; conditions: radiolabelled compound
Description: The radioactive compound was also incubated with an isolated leucocyte preparation to which an erythrocyte fraction had been added back. The packed erythrocytes obtained after blood sedimentation were washed twice with HBSS and then resuspended in their original blood volume with HBSS. Leucocytes obtained from 30 ml blood were resuspended in 0.5 ml erythrocyte suspension and 0.5 ml CFP. The cell suspension was then incubated with compound as above. Analysis of the distribution of activity in the cell pellet in the presence of red blood cells was carried out using Ficoll-Hypaque discontinuous density gradients (densities 1.04, 1.077 and 1.119 g/ml Histopaque steps).

[4] = test system: human whole blood (granulocytes, monocytes + lymphocytes, erythrocytes); test: In vitro cell uptake in human whole blood; format: cell-based; conditions: 37° C. for 1 hour, radiolabelled compound
Description: The radioactive compound was added to 1 ml whole blood anticoagulated with ACD and incubated at 37° C. for 1 hour. The blood was diluted with HBSS and the cellular component separated by centrifugation. Distribution of activity within the cellular pellet was assessed by separation of cell fractions on Ficoll-Hypaque gradients as above.

[5] = test system: E. coli infected rats (experimental abscess); test: In vivo biodistribution in rats bearing experimental abscesses, direct intravenous injection; parameters: species or system male Wistar rats; conditions: for uptake in the infected region compared with the ^99mTc-rbc control: ^123I-labelled, rat model of inflammation/infection; for Relative conc. In infected area / Infected/normal / Infected/blood: directly injected i.v.; for Relative conc. In infected area: % injected dose in a % body weight; for Infected/normal: ratio of % id/g infected area to contralateral thigh; for Infected/blood: ratio of %/g infected area to blood
Description: (§1) The model: into the right gracilis (thigh) muscle of male Wistar rats (250-325 g) were injected 1 ml/kg of an E. coli suspension containing >> 5×10^8/ml organisms.
(§2) Validation: the model was validated for use in the development of diagnostic imaging agents of infection/inflammation by the intravenous injection of ^99mTc-HMPAO ex-vivo labelled human wbc or ^67Ga-citrate when the abscesses were 24 hours old. Animals were dissected between 4 and 24 hours after injection. ^99mTc-labelled red blood cells were used as a negative control.
The animals were sacrificed at either 4 or 24 hours post injection and relevant tissues dissected.

[6] = test system: E. coli infected rats (experimental abscess); test: In vivo biodistribution of ex vivo labelled human leucocytes in E. coli infected rats; parameters: species or system male Wistar rats; conditions: ex vivo labelled human leucocytes injected i.v.
Description: as §1, §2
Screening of Ex vivo labelled human leucocytes in E. coli infected rats: A mixed population of human leucocytes was incubated with elastase inhibitor for 30 minutes at 37° C. The cells were then spun down and resuspended in a known volume of rat plasma for intravenous injection into rats bearing a 24 hour old abscess. Animals were dissected at 4 and 24 hours post injection.

[7] = In vivo stability of iodinated HLE inhibitors (thyroid uptake); parameters: species or system male Wistar rats; conditions: i.v. injection
Description: The in vivo stability of radioiodinated HLE inhibitors was monitored by determination of the percentage uptake in the thyroid as a function of time after administration. Thus radioiodinated compounds and ^123I free iodide were injected into male Wistar rats. The percentage of injected dose distributing to the thyroid was calculated by dissection at 4 and 24 hours post injection and counting.

[8] = measured for non-radioactive iodine-labelled compounds and unlabelled chelate conjugates, read-out: Potency (M/sec), kinact/Ki
[9] = as listed in Table 24 beside the radiolabelled compounds
[10] = measured for non-radioactive iodine-labelled compounds and unlabelled chelate conjugates

Structure (SMILES) | selectivity for granulocytes over a mixture of monocytes/lymphocytes [2] | % uptake in Gran. (granulocytes), WHITE CELLS [2] | % uptake in Mon. (monocytes + lymphocytes), WHITE CELLS [2] | % uptake in Eryth. (erythrocytes), WHITE AND RED CELLS [3] | % uptake in Gran. (granulocytes), WHITE AND RED CELLS [3] | % uptake in Mon. (monocytes + lymphocytes), WHITE AND RED CELLS [3] | % uptake in Eryth. (erythrocytes), WHOLE BLOOD [4] | % uptake in Gran. (granulocytes), WHOLE BLOOD [4] | % uptake in Mon. (monocytes + lymphocytes), WHOLE BLOOD [4] | Relative conc. In infected area ([5]; 4 hrs post injection) | Infected/normal ([5]; 4 hrs post injection) | Infected/blood ([5]; 4 hrs post injection) | Relative conc. In infected area ([5]; 24 hrs post injection) | Infected/normal ([5]; 24 hrs post injection) | Infected/blood ([5]; 24 hrs post injection) | Infected/blood ([6]; 4 hrs post injection) | Infected/normal ([6]; 4 hrs post injection) | Infected/blood ([6]; 24 hrs post injection) | % dose in Thyroid ([7]; 4 hours) | % dose in Thyroid ([7]; 24 hours) | also measured
CCC1(CC)C(=O)N(C(=O)NCc2ccc(I)cc2)C1Oc1ccc(C(=O)N2CCN(C)CC2)cc1 (racemic) [Compound 4, 4-[4-[[(4-Methyl)piperazin-1-yl]carbonyl]phenoxy]-1-[(4-iodo)benzylaminocarbonyl]-3,3-diethyl-2-azetidinone] | some degree of selectivity for granulocytes | 25.7% | 2.0% | 14.2% | 14.4% | 3.4% | 6.5% | 5.0% | 3.9% | 0.51 | 1.3 | 0.62 | 0.12 | 1.3 | 0.51 | 0.61 | 1.5 | 0.75 | 0.1 % dose | 0.9 % dose | kinact/KI ([1]; as listed in Table 24 beside the radiolabelled compounds, read-out: kinact/Ki (human elastase)): 32000 M⁻¹ s⁻¹; kinact/KI [1, 8]: 32000 M⁻¹ s⁻¹; uptake in the infected region compared with the ^99mTc-rbc control [5]: significantly better uptake in the infected region; Infected/normal ([6]; 24 hrs post injection): 1.9
CCC1(CC)C(=O)N(C(=O)NCc2ccc(I)cc2)C1Oc1ccc(C(=O)N2CCN(C)CC2)cc1 (single isomer, unassigned) [Compound 4a] | some degree of selectivity for granulocytes | 68.6% | 14.3% | 8.4% | 53.2% | 14.6% |  |  |  | 0.52 | 1.0 | 0.62 | 0.28 | 1.6 | 0.53 |  |  |  | 0.1 % dose | 0.3 % dose | kinact/Ki (human elastase) [1, 9]: 36000; Potency (M/sec), kinact/Ki [1, 10]: 63,000; uptake in the infected region compared with the ^99mTc-rbc control [5]: significantly better uptake in the infected region
CCC1(CC)C(=O)N(C(=O)NCCc2ccc(O)c(I)c2)C1S(=O)(=O)CCOC (stereo not shown) [Compound 16, 4-[2-Methoxyethylsulfonyl]-1-[(4-hydroxy)(3-iodo)phenylethylaminocarbonyl]-3,3-diethyl-2-azetidinone] | some degree of selectivity for granulocytes | 0.55% | 0.0% | 0.6% | 0.3% | 0.6% | 0.2% | 0.2% | 0.6% |  |  |  |  |  |  |  |  |  | 0.3 % dose | 2.4 % dose | kinact/KI [1, 8]: 2700 M⁻¹ s⁻¹
CCC[C@@H](NC(=O)N1C(=O)C(CC)(CC)[C@@H]1Oc1ccc(C(=O)N2CCN(C)CC2)cc1)c1ccc(I)cc1 [Compound 24, 4S-[4-[[(4-methyl)piperazin-1-yl]carbonyl]phenoxy]-1-[(R-α-n-propyl)-(4-iodo)benzylaminocarbonyl]-3,3-diethyl-2-azetidinone] | some degree of selectivity for granulocytes | 83.2% | 3.4% | 41.7% | 40.4% | 4.0% | 16.6% | 24.3% | 13.6% | 0.38 | 1.3 | 1.3 | 0.16 | 1.1 | 0.9 | 0.9 | 1.3 | 0.9 | 0.2 % dose | 0.6 % dose | kinact/Ki (human elastase) [1, 9]: 2830000; Potency (1/(M·s)), kinact/Ki [1, 10]: 2.83e+06 M⁻¹ s⁻¹; Relative conc. In infected area ([6]; 4 hrs post injection): 0.53; Infected/normal ([6]; 24 hrs post injection): 1.3; Relative conc. In infected area ([6]; 24 hrs post injection): 0.20
CCC[C@@H](NC(=O)N1C(=O)C(CC)(CC)[C@@H]1Oc1cccnc1)c1ccc(I)cc1 [Compound 28, 4S-(Pyridyl-3-oxy)-1-[(R-α-n-propyl)-(4-iodo)benzylaminocarbonyl]-3,3-diethyl-2-azetidinone] | some degree of selectivity for granulocytes | 67.4% | 14.8% | 17.5% | 41.9% | 14.9% |  |  |  | 0.22 | 1.3 | 1.1 | 0.12 | 1.2 | 1.2 | 0.9 | 1.5 | 0.9 |  |  | kinact/Ki (human elastase) [1, 9]: 650000; Potency (1/(M·s)), kinact/Ki [1, 10]: 650000 M⁻¹ s⁻¹; Relative conc. In infected area ([6]; 4 hrs post injection): 0.45; Infected/normal ([6]; 24 hrs post injection): 1.2; Relative conc. In infected area ([6]; 24 hrs post injection): 0.16
[123IH] [[^123I]-iodide, reference compound] |  |  |  |  |  |  |  |  |  |  |  |  |  |  |  |  |  |  | 6.8 % dose | 22.2 % dose | 

— US6375926B1, “Labelled elastase inhibitors” (Amersham International PLC, priority 1996, dated 2002)
